Experiments:
tubulin [1] = assay: inhibition of [3H]colchicine binding to tubulin; details: 1.0 μM tubulin, 10 min at 37° C.
Procedure: Incubation was for 10 min. at 37° C.
Incubation was for 10 mi. at 37° C. Average values obtained in three independent experiments are presented in the table, except for 2-methoxyestrone, which was only examined twice. S.D., standard deviation.

tubulin [2] = assay: tubulin activities of 2-ME analogs (Table 3); format: biochemical
[3] = system: 8 human breast cancer cell lines; assay: human tumor cell panel assay in vitro, breast panel; format: cell-based; design: key to Most Sensitive Cell Lines in Human Tumor Cell Panel Assay: Breast: Most sensitive cell panes are marked with ✓
Description: (§1) The tubulin activities, breast cancer cell line activities, and the cell panels most sensitive to selected analogs are shown in Tables 3 and 4.

CNS cell lines = assay: Human Tumor Cell Panel Assay in vitro, CNS panel; format: cell-based; design: key: Most sensitive cell panes are marked with ✓
Description: as §1

Melanoma cell lines = assay: Human Tumor Cell Panel Assay in vitro, melanoma panel; format: cell-based; design: key: Most sensitive cell panes are marked with ✓
Description: as §1

[4] = system: Ovarian cell lines (especially OVCAR-3); assay: Human Tumor Cell Panel Assay in vitro, ovarian panel; format: cell-based; design: key: Most sensitive cell panes are marked with ✓
Description: as §1

[5] = system: new blood vessel cells (angiogenesis); assay: chick embryo chorioallantoic membrane (CAM) assay; format: in vivo; details: 100 mg disk, after 48 hours
Procedure: A suitable assay is the chick embryo chorioallantoic membrane (CAM) assay described by Crum et al. Science 230:1375 (1985). See also, U.S. Pat. No. 5,001,116, hereby incorporated by reference, which describes the CAM assay. Briefly, fertilized chick embryos are removed from their shell on day 3 or 4, and a methylcellulose disc containing the drug is implanted on the chorioallantoic membrane. The embryos are examined 48 hours later and, if a clear avascular zone appears around the methylcellulose disc, the diameter of that zone is measured.

[6] = system: corneal neovascularization; assay: Mouse Corneal Micropocket Assay; format: in vivo, mice; details: 150 mg/kg, daily oral, 5 days
Procedure: Five- to 7-week-old SCID female mice were obtained from Massachusetts General Hospital (Boston, Mass.), Immunocompetent 7-9-week-old female C57BL/6 mice were obtained from ARCH Technical Services, Children's Hospital (Boston, Mass.). All animal studies were conducted according to protocols approved by the Animal Ethics Committee of Children's Hospital. Animals were anesthetized in a methoxyflurane (Pittman-Moore, Mundelein, Ill.) chamber prior to all procedures and were observed until fully recovered. Animals were sacrificed by a lethal dose of methoxyflurane.
Mouse Corneal Micropocket Assay To study the effect of microtubule inhibitors on angiogenesis in vivo, a model of angiogenesis in the mouse cornea was used in […] mice as described previously (Kenyon, B. B., Voest, E. E., Chen, C. C., Folkman, J., and D'Amato, R. J. A model of angiogenesis in the mouse cornea. Invest. Ophthalmol. & Visual Sci., 76: 1625-1632, 1996). In brief, after animals were anesthetized, corneal micropockets were created in both eyes with a modified von Graefe cataract knife. Into each pocket, a 0.4 mm ×0.4 mm×0.2 mm sucrose aluminum sulfate (Bukh Meditee, Copenhagen, Denmark) pellet coated with hydron polymer type NCC (IHN Sciences, New Brunswick, N.J.) containing 80 ng of bFGF or 160 ng of human recombinant […] (gift from Reprogenesis, Cambridge, Mass.) was implanted 1.0-1.2 mm from the limbal vessels (bFGF experiments) or 0.5-0.7 mm from the limbus (VEGF experiments). Erythromycin ointment (E. Fougera, Melville, N.Y.) was applied to each operated eye. The sucralfate acts to stabilize the growth factor and to slow its release from the hydron. Before testing each drug in this assay, we found the maximal dose that could be administered daily for 5 consecutive days without producing signs of toxicity (i.e., no hair loss, diarrhea, infection, lethargy, or weight loss). The treated groups received daily oral administration for 5 consecutive days of the stated dosage of 2-ME or a derivative thereof suspended in 0.5 g/100 ml of carboxymethylcellulose.
Treatment was started on the day of pellet implantation. […] For this purpose, the eyes of the mice were examined by slit-lamp biomicroscopy. Area of corneal neovascularization was calculated using a modified formula for a half-ellipse: Area (mm^2)=[π×clock hours×length (mm)×0.2 mm]. This formula provides the most accurate approximation of the area of neovascularization that grows toward the pellet. (Kenyon, B. B., Voest, E. E., Chen, C. C., Folkman, J., and D'Amato, R. J. A model of angiogenesis in the mouse cornea. Invest. Ophthalmol. & Visual Sci., 76: 1625-1632, 1996).

[7] = system: MDA-MB-435 estrogen receptor-negative human breast carcinoma cells; assay: In Vivo Tumor Growth Inhibition; design: species or system SCID mice; details: 29 days at 75 mg/kg p.o.
Procedure: To determine the antitumor activity of 2-ME and derivatives, SCID mice were s.c. inoculated with 10^6 MDA-MB-435 estrogen receptor-negative human breast carcinoma cells. Treatment was initiated on day 12 when tumor volumes reached 75-100 mm3 in volume. Drugs were suspended in 0.5 g/100 ml of carboxymethylcellulose with sterile glass beads, vortexed for 5 minutes, and administered p.o. in a volume of 0.1 ml. Control mice received 0.1 ml of carboxymethylcellulose p.o. Serial caliper measurements of perpendicular diameters were used to calculate tumor volume using the following: (shortest diameter)^2×(longest diameter)×0.52. T/C was calculated as the volume of treated tumors over the volume of control tumors. A smaller number indicates a greater inhibition of tumor growth.

SMILES: COc1cc2c(cc1O)CCC1C2CCC2(C)C(O)CCC12 (centres unmarked) [NSC 659853, 2-Methoxyestradiol]
- inhibition of colchicine binding to tubulin (FIG. 2), in words (tubulin [1]; 5 μM [3H]colchicine): inhibits colchicine binding to tubulin
- Percentage Inhibition of colchicine binding to tubulin (tubulin [1]; 100 μM inhibitor, 2 μM [3H]colchicine, ± S.D.): 82 ± 2%
- IC50 (tubulin [2]): 3.6 ± 0.4 µM
- Most Sensitive Cell Lines in Human Tumor Cell Panel Assay: Breast ([3]; 8 cell lines, only MCF-7 and T-47D express estrogen and progesterone receptors): ✓
- IC50 ([3]; Homo sapiens, cell panel assay in vitro, two values per cell separated by /, read-out: Tumor Panel: Average log IC50(Molar) against 8 human breast cancer cell lines (converted)): 0.234 µM
- Most Sensitive Cell Lines in Human Tumor Cell Panel Assay: CNS (CNS cell lines): ✓
- Most Sensitive Cell Lines in Human Tumor Cell Panel Assay: Melanoma (Melanoma cell lines): ✓
- Most Sensitive Cell Lines in Human Tumor Cell Panel Assay: Ovarian [4]: ✓
- inhibition of cell mitosis and growth of new blood vessels in CAM assay [5]: found to inhibit cell mitosis and the growth of new blood vessels
- inhibition in corneal pocket assay [6]: 25%
- T/C (volume of treated tumors over volume of control tumors) [7]: 0.40
